Source: paper PMC10674657, “Quinazolin-4-one/3-cyanopyridin-2-one Hybrids as Dual Inhibitors of EGFR and BRAF^V600E: Design, Synthesis, and Antiproliferative Activity” (Pharmaceuticals, 2023)
Where two headings read alike, the source gives them in different places. Blank lines part the entries; values can stand above or below the compound they belong to.

What was measured:
[1] = tested on: four cancer cell lines (A-549, MCF-7, Panc-1, HT-29); experiment: Antiproliferative assay, average over four cancer cell lines (GI50); conditions: read-out: Average IC50 (GI50)
Description: (§1) For a rigorous assessment, the widely accepted MTT assay [63, 64] was employed. Using Doxorubicin, a well-established drug, as the reference standard ensures a benchmark for the synthesized compounds, allowing a contextual understanding of their efficacy.
(§2) The MTT assay [63, 64] was employed for this assessment, with Doxorubicin as the reference drug.
(§3) 24h followed by the addition of synthesized compounds (in 200 μL medium to yield a final concentration of 0.1% (v/v) dimethyl sulfoxide) into individual wells of the plates. Four wells were designated to a single compound. The plates were allowed to incubate at 37°C for 96 h. After wards, the medium was aspirated and 3-[4,5-dimethylthiazol-2-yl]-2,5-diphenyltetrazolium bromide (MTT) (0.4 mg/mL) in medium was added to each well and subsequently incubated for 3 h. The medium was aspirated and 150 μL dimethyl sulfoxide (DMSO) was added to each well.
(§4) The plates were vortexed followed by the measurement of absorbance at 540 nm on a microplate

[2] = tested on: HT-29 human colon cancer cell line; experiment: Antiproliferative assay, HT-29
Description: as §1, §2, §3, §4

[3] = tested on: A-549 human lung carcinoma cell line; experiment: Antiproliferative assay, A-549
Description: as §1, §2, §3, §4

[4] = tested on: MCF-7 human breast adenocarcinoma cell line; experiment: Antiproliferative assay, MCF-7
Description: as §1, §2, §3, §4

MCF-10A cells = experiment: Cell viability (cytotoxicity) MTT assay in non-tumorigenic MCF-10A cells; format: cell-based, human; conditions: 50 µM, 4 days
[5] = tested on: Panc-1 human pancreatic cancer cell line; experiment: Antiproliferative assay, Panc-1
Description: as §1, §2, §3, §4

BRAF^V600E [6] = target: T1, BRAF^V600E (Mus musculus, UniProt P28028, V585E); experiment: BRAF V600E kinase inhibitory assay; format: biochemical
T1 construct: Mouse full-length GST-tagged; purchased Invitrogen PV3849
From the text: Mouse full-length GST-tagged
developed using a phosphor screen.

EGFR [7] = target: T2, EGFR (Homo sapiens, UniProt P00533); experiment: EGFR-TK inhibitory assay
Description: Baculoviral expression vectors including pBlueBacHis2B and pFASTBacHTc were used
5ʹ upstream to the EGFR sequence comprised a sequence that encoded (His)6.
Sf-9cells were infected for 72h for protein expression. The pellets of Sf-9 cells were solubilized in
a buffer containing sodium vanadate (100 μM), aprotinin (10 μg/mL), triton (1%), HEPES buffer(50mM), ammonium molybdate (10 μM), benzamidine HCl (16 μg/mL), NaCl (10mM), leupeptin (10 μg/mL) and pepstatin (10 μg/mL) at 0°C for 20 min at pH 7.4, followed by centrifugation for 20 min. To eliminate the nonspecifically bound material, a Ni-NTA super flow packed column was used to pass through and wash the crude extract supernatant first with
10mMand then with 100 mM imidazole. Histidine-linked proteins were first eluted with 250 and
then with 500 mM imidazole subsequent to dialysis against NaCl (50 mM), HEPES (20 mM),
glycerol (10%) and 1 μg/mL each of aprotinin, leupeptin and pepstatin for 120 min. The
purification was performed either at 4 °C or on ice. To record autophosphorylation level, EGFR
kinase assay was carried out based on DELFIA/Time-Resolved Fluorometry. The compounds
were first dissolved in DMSO absolute, subsequent to dilution t o appropriate concentration using
HEPES(25 mM) at pH 7.4. Each compound (10 μL) was incubated with recombinant enzyme (10
μL, 5ng for EGFR, 1:80 dilution in 100 mM HEPES) for 10 min at 25 °C, subsequent to the addition of5X buffer (10 μL, containing 2 mM MnCl2, 100 μM Na3VO4, 20 mM HEPES and 1
mM DTT)and ATP-MgCl2 (20 μL, containing 0.1 mM ATP and 50 mM MgCl2) and incubation
for 1h. The negative and positive controls were included in each plate by the incubation of enzyme
either with or without ATP-MgCl2. The liquid was removed after incubation and the plates were
washed thrice using a wash buffer. Europium-tagged anti phosphotyrosine antibody (75 μL, 400
ng) was added to each well followed by incubation of 1h and then washing of the plates using buffer. The enhancement solution was added to each well and the signal was recorded at excitation
The autophosphorylation percentage inhibition by compounds was calculated using the following equation: Using the curves of percentage inhibition

[8] = Cell viability (cytotoxicity) MTT assay in non-tumorigenic MCF-10A cells; format: cell-based, human; conditions: human, MCF-10A mammary epithelial cells
BRAF^V600E [9] = conditions: cited from earlier work
[10] = tested on: cancer cell proliferation; conditions: cited from earlier work
EGFR [11] = target: T2, EGFR; set-up: acids645–1186; His6 (N); made in house; host or cells: Sf-9 insect cells (baculovirus; pBlueBacHis2B / pFASTBacHTc); conditions: cited from earlier work

T2 sequence (P00533 669-1210): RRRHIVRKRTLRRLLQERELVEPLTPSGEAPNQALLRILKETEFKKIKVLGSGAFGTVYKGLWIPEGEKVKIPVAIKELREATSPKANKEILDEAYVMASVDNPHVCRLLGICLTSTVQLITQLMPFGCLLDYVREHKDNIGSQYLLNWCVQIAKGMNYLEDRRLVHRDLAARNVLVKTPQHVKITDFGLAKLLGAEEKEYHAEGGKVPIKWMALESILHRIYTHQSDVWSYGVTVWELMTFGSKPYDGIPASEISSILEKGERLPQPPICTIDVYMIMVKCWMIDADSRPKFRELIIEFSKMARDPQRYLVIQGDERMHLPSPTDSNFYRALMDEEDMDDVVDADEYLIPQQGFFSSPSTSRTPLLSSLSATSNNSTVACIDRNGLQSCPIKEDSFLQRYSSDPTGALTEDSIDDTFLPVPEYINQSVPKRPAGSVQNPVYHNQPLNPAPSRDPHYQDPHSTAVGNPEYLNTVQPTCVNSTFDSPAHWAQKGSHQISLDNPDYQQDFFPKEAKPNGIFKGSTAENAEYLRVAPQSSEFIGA
T1 sequence (P28028 whole entry V585E): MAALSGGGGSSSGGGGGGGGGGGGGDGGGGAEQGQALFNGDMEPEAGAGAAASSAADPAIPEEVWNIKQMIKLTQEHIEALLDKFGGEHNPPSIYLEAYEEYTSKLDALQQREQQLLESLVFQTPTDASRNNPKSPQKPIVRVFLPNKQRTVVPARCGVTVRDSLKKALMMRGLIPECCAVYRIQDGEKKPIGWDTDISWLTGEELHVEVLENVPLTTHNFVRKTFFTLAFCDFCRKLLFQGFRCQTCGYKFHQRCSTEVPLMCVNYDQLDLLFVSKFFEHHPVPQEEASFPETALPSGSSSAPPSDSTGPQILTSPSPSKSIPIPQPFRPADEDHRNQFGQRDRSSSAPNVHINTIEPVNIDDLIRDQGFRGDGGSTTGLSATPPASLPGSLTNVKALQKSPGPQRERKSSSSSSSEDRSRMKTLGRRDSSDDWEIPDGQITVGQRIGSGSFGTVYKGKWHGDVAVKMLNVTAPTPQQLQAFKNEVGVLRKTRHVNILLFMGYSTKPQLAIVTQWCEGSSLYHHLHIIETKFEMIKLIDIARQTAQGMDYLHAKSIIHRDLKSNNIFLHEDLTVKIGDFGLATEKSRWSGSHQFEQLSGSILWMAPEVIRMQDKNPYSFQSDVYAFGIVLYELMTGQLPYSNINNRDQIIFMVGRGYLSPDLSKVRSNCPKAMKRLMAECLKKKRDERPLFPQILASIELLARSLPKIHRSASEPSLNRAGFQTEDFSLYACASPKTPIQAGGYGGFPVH

IC50 ([1]; average of IC50 against four cancer cell lines): 2 µM
IC50 ([2]; read-out: Antiproliferative Activity IC50 ± SEM, HT-29, mean ± SEM): 2.1 ± 0.1 µM
IC50 ([3]; read-out: Antiproliferative Activity IC50 ± SEM, A-549, mean ± SEM): 2 ± 0.1 µM
IC50 ([4]; read-out: Antiproliferative Activity IC50 ± SEM, MCF-7, mean ± SEM): 1.8 ± 0.1 µM
IC50 ([5]; read-out: Antiproliferative Activity IC50 ± SEM, Panc-1, mean ± SEM): 2.1 ± 0.1 µM
Compound: 2-((3-Allyl-4-oxo-3,4-dihydroquinazolin-2-yl)thio)-N-(4-(4-(4-bromophenyl)-4-cyano-6-oxo-1,6-dihydropyridin-2-yl)phenyl)acetamide [Compound 20]
Cell Viability % (MCF-10A cells): 91%

Compound: C=CCn1c(SCC(=O)Nc2ccc(-c3cc(-c4ccc(Cl)cc4)c(C#N)c(=O)[nH]3)cc2)nc2ccccc2c1=O [Compound 19, 2-((3-Allyl-4-oxo-3,4-dihydroquinazolin-2-yl)thio)-N-(4-(4-(4-chlorophenyl)-5-cyano-6-oxo-1,6-dihydropyridin-2-yl)phenyl)acetamide]
IC50 ([1]; Homo sapiens): 1.4 µM
IC50 ([2]; Homo sapiens, HT-29, read-out: Antiproliferative Activity IC50 ± SEM, HT-29): 1.6 ± 0.1 µM
IC50 ([3]; Homo sapiens, A549, read-out: Antiproliferative Activity IC50 ± SEM, A-549): 1.3 ± 0.1 µM
IC50 (BRAF^V600E [6]; BRAF V600E, mean ± SEM, read-out: BRAF Inhibition IC50 ± SEM): 0.19 ± 0.012 µM
fold less potent than Erlotinib, BRAF^V600E (BRAF^V600E [6]; ratio of IC50 to Erlotinib): 3 fold
IC50 (EGFR [7]): 0.14 ± 0.011 µM
fold less potent than Erlotinib, EGFR (EGFR [7]; ratio of IC50 to Erlotinib): 1.8 fold
IC50 ([4]; Homo sapiens, MCF7, read-out: Antiproliferative Activity IC50 ± SEM, MCF-7): 1.2 ± 0.08 µM
viability at 4 days, 50 µM [8]: 91%
IC50 ([5]; Homo sapiens, PANC-1, read-out: Antiproliferative Activity IC50 ± SEM, Panc-1): 1.6 ± 0.1 µM

Compound: COc1ccc(-c2cc(-c3ccc(OC)c(OC)c3)n(CC(=O)Nc3ccc(C4=NNC(c5ccc(OC)c(OC)c5)C4)cc3)c(=O)c2C#N)cc1OC (centres unmarked) [III]
IC50 (BRAF^V600E [9]): 0.065 µM
GI50 [10]: 0.025 µM

Compound: C=CCn1c(SCC(=O)Nc2cccc(C(=O)/C=C/c3ccc(OC)cc3)c2)nc2ccccc2c1=O [II]
IC50 (BRAF^V600E [9]): 0.65 µM
IC50 (EGFR [11]): 0.11 µM

Compound: COc1ccc(/C=C/C(=O)c2ccc(NC(=O)Cn3c(-c4ccc(OC)c(OC)c4)cc(-c4ccc(OC)c(OC)c4)c(C#N)c3=O)cc2)cc1 [IV]
IC50 (BRAF^V600E [9]): 0.058 µM
GI50 [10]: 0.72 µM
